Measurements taken from patent publication US5665716A, “24-homo vitamin D derivatives, process for their production and pharmaceutical preparations obtained therefrom” (Schering Aktiengesellschaft, priority 1989, dated 1997).

system: Keratinocytes of newly born mice; assay: antiproliferative potency: 3H thymidine incorporation in DNA of keratinocytes; format: cell-based, mouse (neonatal NMRI mice); settings: Keratinocyte; neonatal mouse keratinocytes, 24 hours with test substance in serum-free medium at 32.5° C., then 4 hours 3H methyl thymidine; read-out: IC50, inhibition of 3H thymidine incorporation in DNA
Description: Keratinocytes of newly born mice, with a slight change of the method of Yuspa, S. and Harris, C.
Neonatal NMRI mice of both sexes are killed by decapitation, the skin is removed, washed in an antibiotic-antimycotic solution and incubated with the dermal side downward in dispase II solution ([…] in tissue culture medium M199+25 mmol/1 of HEPES+15% fetal calf serum (FCS)+50 U/ml of penicillin/streptomycin (P/S) (preparation medium, PM) at 4° C. overnight. The epidermis is removed and an individual cell suspension is produced by trypsinization. After centrifuging, the cell sediment is resuspended, after trypan blue dyeing, the number of living small round cells is determined and the cells are sown in a density of 4×10^5 cells/cm^2 in Primaria 24-hole plates in tissue culture medium (M199+15% FCS+50 U/ml of P/S). […] Then 0.4 microCi/50 microliters of ^3 H methyl thymidine (40 Ci/mmol) is added. After 4 hours the medium is suctioned off and the reaction is ended by addition of 500 microliters of ice-cold 10% trichloroacetic acid (TCA). The cells are washed with TCA and PBS, lysed by incubation in a proteinase K solution (10 mmol/l of tris-HCl, 10 mmol/l of EDTA, 10 mmol/l of NaCl, 0.2% of Triton-X 100, pH 8.0, 50 micrograms/ml of […]) and the lysate is clarified by centrifuging. In the supernatant the radioactivity is determined scintillation photometrically and, after specific staining of the DNA with diamidinophenylindole (DAPI), the DNA concentration is fluorescence photometrically determined.

Row | SMILES | IC50 [nM]
1 | C=C1/C(=C\C=C2/CCC[C@]3(C)[C@@H]([C@H](C)CCCC(C)(C)O)CC[C@@H]23)C[C@@H](O)C[C@@H]1O [Calcitriol, 1alpha,25-dihydroxy-cholecalciferol, reference compound] | 2.7
2 | C=C1/C(=C\C=C2/CCC[C@]3(C)[C@@H]([C@H](C)/C=C/[C@@H](O)CC(C)C)CC[C@@H]23)C[C@@H](O)C[C@@H]1O [Compound B, (5Z,7E,22E)-(1S,3R,24S)-9,10-seco-24a-homo-5,7,10(19),22-cholestatetraene-1,3,24-triol] | 9.5
3 | C=C1/C(=C\C=C2/CCC[C@]3(C)[C@@H]([C@H](C)/C=C/[C@H](O)CC(C)C)CC[C@@H]23)C[C@@H](O)C[C@@H]1O [Compound A, (5Z,7E,22E)-(1S,3R,24R)-9,10-seco-24a-homo-5,7,10(19),22-cholestatetraene-1,3,24-triol] | 6
